From patent US6506607B1, “Methods and compositions for the identification and assessment of prostate cancer therapies and the diagnosis of prostate cancer” (Millennium Pharmaceuticals, Inc., priority 1997, dated 2003)

Test system: LNCaP cells
Experiment: Gene expression in bicalutamide-treated vs untreated LNCaP cells (subtraction library, Gene Expression Micro-Array)
Assay type: cell-based
Conditions: 25 hours

## CC(O)(CS(=O)(=O)c1ccc(F)cc1)C(=O)Nc1ccc(C#N)c(C(F)(F)F)c1 (centres unmarked) [bicalutamide, Bicalutamide]
SEQ ID NO 41, 100 nM bicalutamide
  FOLD INCREASE IN mRNA: Cyclin-dependent kinase inhibitor 1 {268652}: 4.5 fold
SEQ ID NO 42, 100 nM bicalutamide
  FOLD INCREASE IN mRNA: Activating transcription factor 3 (ATF3) {428248}: 11.5 fold
SEQ ID NO 43, 100 nM bicalutamide
  FOLD INCREASE IN mRNA: Defender against cell death 1 {488974}: 2.9 fold
SEQ ID NO 46, 100 nM bicalutamide
  FOLD INCREASE IN mRNA: CLCN3 {346749}: 2.4 fold
SEQ ID NO 47, 100 nM bicalutamide
  FOLD INCREASE IN mRNA: Phosphotyrosine independent ligand p62 for the Lck SH2 domain {510278}: 5.8 fold
SEQ ID NO 48, 100 nM bicalutamide
  FOLD INCREASE IN mRNA: Seryl-tRNA synthetase {510431}: 4.3 fold
SEQ ID NO 49, 100 nM bicalutamide
  FOLD INCREASE IN mRNA: D53 (hD53) {510461}: 3.8 fold
SEQ ID NO 50, 100 nM bicalutamide
  FOLD INCREASE IN mRNA: Unknown human protein {512334}: 3.5 fold
SEQ ID NO 51, 100 nM bicalutamide
  FOLD INCREASE IN mRNA: Thioredoxin reductase {510377}: 2.6 fold
SEQ ID NO 53, 100 nM bicalutamide
  FOLD INCREASE IN mRNA: ORF and HepG2 (identical sequence) {510258}: 5.3 fold
SEQ ID NO 54, 100 nM bicalutamide
  FOLD INCREASE IN mRNA: 4F2 cell-surface antigen heavy chain {510504}: 8.1 fold
SEQ ID NO 55, 100 nM bicalutamide
  FOLD INCREASE IN mRNA: Asparagine synthetase {510206}: 2.8 fold
SEQ ID NO 56, 100 nM bicalutamide
  FOLD INCREASE IN mRNA: pM5 {509550}: 2.3 fold
SEQ ID NO 57, 100 nM bicalutamide
  FOLD INCREASE IN mRNA: Archain {488510}: 2.3 fold
SEQ ID NO 58, 100 nM bicalutamide
  FOLD INCREASE IN mRNA: Gravin {488106}: 2.8 fold
SEQ ID NO 60, 100 nM bicalutamide
  FOLD INCREASE IN mRNA: Signal recognition particle receptor alpha subunit {358710}: 2.6 fold
SEQ ID NO 61, 100 nM bicalutamide
  FOLD INCREASE IN mRNA: Phosphoenolpyruvate carboxykinase {363272}: 3.4 fold
SEQ ID NO 62, 100 nM bicalutamide
  FOLD INCREASE IN mRNA: Protein translation factor SUI1 homolog {365542}: 2.7 fold
SEQ ID NO 63, 100 nM bicalutamide
  FOLD INCREASE IN mRNA: NADPH-flavin reductase {365775}: 3.7 fold
SEQ ID NO 64, 100 nM bicalutamide
  FOLD INCREASE IN mRNA: Peptidyl-prolyl CIS-trans isomerase B precursor {376399}: 2.5 fold
SEQ ID NO 65, 100 nM bicalutamide
  FOLD INCREASE IN mRNA: Aspartate aminotransferase {417270}: 3.1 fold
SEQ ID NO 66, 100 nM bicalutamide
  FOLD INCREASE IN mRNA: OS-9 precursor {417136}: 2.7 fold
SEQ ID NO 67, 100 nM bicalutamide
  FOLD INCREASE IN mRNA: KIAA0025 and PIGHEP3 homologous region {418227}: 5.3 fold
SEQ ID NO 68, 100 nM bicalutamide
  FOLD INCREASE IN mRNA: Glucosamine-fructose-6-phosphate aminotransferase {469633}: 3.2 fold
SEQ ID NO 69, 100 nM bicalutamide
  FOLD INCREASE IN mRNA: ADP-ribosylation factor 1 {471384}: 3.1 fold
SEQ ID NO 70, 100 nM bicalutamide
  FOLD INCREASE IN mRNA: Glycyl-tRNA synthetase {471164}: 3.6 fold
SEQ ID NO 71, 100 nM bicalutamide
  FOLD INCREASE IN mRNA: Prion protein (PrP) {470074}: 3.1 fold
SEQ ID NO 72, 100 nM bicalutamide
  FOLD INCREASE IN mRNA: Mitochondrial serine hydroxymethyltransferase {344080}: 2.4 fold
SEQ ID NO 73, 100 nM bicalutamide
  FOLD INCREASE IN mRNA: Alanyl-TRNA synthetase {343998}: 3.8 fold
SEQ ID NO 76, 100 nM bicalutamide
  FOLD INCREASE IN mRNA: Translocon-associated protein {324179}: 2.5 fold
SEQ ID NO 78, 100 nM bicalutamide
  FOLD INCREASE IN mRNA: Translation initiation factor 5 (elF5) {299843}: 2.3 fold
SEQ ID NO 79, 100 nM bicalutamide
  FOLD INCREASE IN mRNA: RESTIN {291620}: 2.3 fold
SEQ ID NO 80, 100 nM bicalutamide
  FOLD INCREASE IN mRNA: Transcription elongation factor S-II {257458}: 2.8 fold
SEQ ID NO 81, 100 nM bicalutamide
  FOLD INCREASE IN mRNA: Human clone 137308 {252491}: 2.6 fold
SEQ ID NO 82, 100 nM bicalutamide
  FOLD INCREASE IN mRNA: Glutamate-cysteine ligase regulatory subunit {245939}: 4.1 fold
SEQ ID NO 83, 100 nM bicalutamide
  FOLD INCREASE IN mRNA: Fatty aldehyde dehydrogenase {208950}: 3.1 fold
SEQ ID NO 84, 100 nM bicalutamide
  FOLD INCREASE IN mRNA: MHC class I HLA-Bw58 gene {203448}: 2.3 fold
SEQ ID NO 85, 100 nM bicalutamide
  FOLD INCREASE IN mRNA: Mitochondrial NDA (P)+ dependent malic enzyme {109375}: 2.5 fold
SEQ ID NO 136, 100 nM bicalutamide
  FOLD INCREASE IN mRNA: GADD 153 = Growth arrest and DNA-damage inductor gene {362009}: 11.1 fold
SEQ ID NO 137, 100 nM bicalutamide
  FOLD INCREASE IN mRNA: KIAA0025 gene {30476}: 6.7 fold
SEQ ID NO 138, 100 nM bicalutamide
  FOLD INCREASE IN mRNA: Phosphotyrosine independent ligand p62 for the Lck SH2 domain {471392}: 6.4 fold
SEQ ID NO 139, 100 nM bicalutamide
  FOLD INCREASE IN mRNA: 150 kDa oxygen-regulated protein ORP150 {486858}: 5.9 fold
SEQ ID NO 140, 100 nM bicalutamide
  FOLD INCREASE IN mRNA: 78 KD Glucose regulated protein precursor {366350}: 4 fold
SEQ ID NO 141, 100 nM bicalutamide
  FOLD INCREASE IN mRNA: Smad 1 {345928}: 3.9 fold
SEQ ID NO 142, 100 nM bicalutamide
  FOLD INCREASE IN mRNA: EST28g11 WATM1 {486703}: 3.8 fold
SEQ ID NO 143, 100 nM bicalutamide
  FOLD INCREASE IN mRNA: ESTs {322080}: 3.7 fold
SEQ ID NO 144, 100 nM bicalutamide
  FOLD INCREASE IN mRNA: Seryl-tRNA sythetase {129892}: 3.6 fold
